The source of these data is patent US20250073338A1, “CONJUGATE COMPOUNDS AND COMPOSITIONS” (REZUBIO PHARMACEUTICALS CO., LTD, priority 2023, published 2025).

A word on the EC50: it is the midpoint of the concentration-response curve. One may read the AUC as concentration integrated over time. The term Cmax denotes the highest concentration seen after dosing. For orientation: Tmax means the time at which the peak concentration occurs. The term bioavailability denotes dose-corrected exposure relative to a reference, in per cent. The low end stands for little systemic uptake, the high end for much systemic uptake.

Counter-ions that a name gives are not always drawn.

The target in one data set is T1, GPR40 (Homo sapiens, UniProt O14842).
T1 construct: expressed in transfected cells
Kind of data set: IP1 accumulation assay in HEK293 cells stably expressing GPR40. The following applies: HEK293 cells stably expressing GPR40, 2 hours at 37° C. Type of data set: cell-based. On the procedure:
IP1 accumulation assay was used to evaluate the potency of compounds. HEK293 cells stably expressing GPR40 were cultured in 5% CO2 incubator (ThermoFisher) in maintenance media (Dulbecco's modified Eagle's medium with 4.5 g/L of glucose, 10% fetal bovine serum, 100 μg/mL Hygromycin, and Penicillin (100 U/mL)/Streptomycin (100 μg/mL)) till 100% confluency. Cells were harvested freshly, spun down at 300× g for 5 min, and resuspended in pre-warmed 1× stimulant buffer from Cisbio IP-One HTRF Detection kit (Cisbio). Cell density was adjusted to 2.0×10^6 cells/mL. DMSO was used as blank control and AMG-1638 (CAS #: 1142214-62-7) as positive control. Compounds were prepared at 10 mM in DMSO and 5 nL of 3× serially diluted compounds (10 concentrations) were added to each well of the 384-LDV assay plate (Corning) by using ECHO 550 (Labcyte). Five μL of cells in suspension were transferred into each well by using Multidrop Combi Reagent Dispenser (ThermoFisher). Assay plate was then sealed and incubated at 37° C. for 2 hours. IP-d2 reagent and anti-IP1 reagent were prepared following the manual (Cisbio). Five μL of IP1-d2 and then 5 μL of anti-IP1 antibody was added to each well sequentially. Assay plate was incubated at room temperature for 60 min and then read at 665 nm/615 nm on an Envision plate reader (PerkinElmer). The ratio of values obtained at 665 nm and 615 nm was used for calculation of IP1 accumulation: % Effect=(Ratiosample−Ratioblank)/(RatioAMG-1638−Ratioblank)×100. Dose curve was fitted and EC50 of each compound was calculated by using XLFit.

Data set [1] can be described thus: Pharmacokinetics in mice (IV and PO), plasma LC-MS/MS. Type of data set: in vivo, Male ICR (CD-1) mice. The following applies: for Cl / AUC / half-life / Vd: IV (1 mpk); for AUC / half-life / Vd / Cmax / Tmax / bioavailability: male, ICR (CD-1), mouse, plasma; for AUC / half-life / Vd: 1 mg/kg; for half-life: read-out: T½ (converted); for Vd: read-out: Vss; for Cmax / Tmax / bioavailability: 10 mg/kg, PO (10 mpk); for bioavailability: oral bioavailability. The method, then: Male ICR (CD-1) mice at around 4-6 weeks with body weight of around 25 grams (n=3) were purchased from VT-River (Zhejiang, China). After 1-week acclimation, animals were dosed with exemplary compounds intravenously at 1 mpk or orally at 10 mpk (0.5% methylcellulose in PBS as vehicle for both routes of administration). Blood samples (30 μL) were collected via saphenous vein puncture at 5 (IV only), 15, 30, 60, 120, 240, 480, and 1440 min post dose. The blood samples were saved in 0.5 M K2EDTA coated tubes and centrifuged at 4,600 rpm at 4° C. for 5 min. Plasma samples were collected and stored in −80° C. till PK analysis.
Take 10 μL of K2EDTA-treated plasma samples of CD-1 mice, add 200 μL of precipitation solution with internal standard (5 ng/mL Terfenadine in MeOH/ACN), mix well by vortexing for 1 min at room temperature followed by centrifuge at 4° C. and 4000 rpm for 15 min. Save the supernatant as injection for LC-MS/MS quantification of exemplary compounds in plasma samples of mice.
Establish a standard curve before and after each analytical batch, accompanied by quality controls of low, medium, and high concentrations. The number of quality control samples is not less than 6 and should be equal to or more than the number of samples of each batch, and interspersed in sample measurement. Standard curve and quality control samples of each batch must meet the acceptance criteria.

The next data set deals with C57BL/6 mice. Kind of data set: oGTT study (oral glucose tolerance test). The data set is classed as in vivo, Male C57BL/6 mice. The following applies: 30 mpk oral gavage, blood glucose AUC 0-120 minutes after 5 g/kg glucose challenge. The method, then: (§1) Male C57BL/6 mice were purchased from Zhejiang Vital River Laboratories Co., Ltd (a branch of Charles River Laboratories) at around 7-8 weeks of age (n=8). Animal were kept under regular light/dark cycle (12 h light: 12 h dark, L^D) at room temperature and fed regular chow diet and tap water ad libitum in facility for more than one week. On study day, animals were fasted by removing food at 7:00 AM. Blood glucose was measured at 9:00 AM by a glucometer (Roche) via tail bleeding and mice were sorted to groups of treatment based on average blood glucose (˜[…]). The vehicle (0.5% methylcellulose) or exemplary compounds solutions (30 mpk dose) were mixed well and dosed by oral gavage (dosing volume=10 ml/kg body weight). At 1:00 PM, blood glucose was measured by a glucometer (0 min). Animals were then PO dosed with 5 g/kg glucose for oral glucose challenge. Blood glucose was then measured at 20, 40, 60, and 120 min by glucometer. At the end of study, 50 μl tail blood from treatment groups were collected and mixed with 4% sodium citrate (vol 9:1). Tubes were centrifuged in a benchtop centrifuge for 10 min at 8,000 RPM at 4° C. Plasma samples were separated and stored in −80° C. freezer for measurements of PK by LC-MS/MS.

The nature of data set [2]: Plasma drug concentration at end of oGTT study by LC-MS/MS. The data set is classed as in vivo, Male C57BL/6 mice. The following applies: male, C57BL/6, mouse, 30 mpk oral, 6 h post dose, read-out: Drug conc. The method, then: as §1

T1 sequence (O14842 whole entry): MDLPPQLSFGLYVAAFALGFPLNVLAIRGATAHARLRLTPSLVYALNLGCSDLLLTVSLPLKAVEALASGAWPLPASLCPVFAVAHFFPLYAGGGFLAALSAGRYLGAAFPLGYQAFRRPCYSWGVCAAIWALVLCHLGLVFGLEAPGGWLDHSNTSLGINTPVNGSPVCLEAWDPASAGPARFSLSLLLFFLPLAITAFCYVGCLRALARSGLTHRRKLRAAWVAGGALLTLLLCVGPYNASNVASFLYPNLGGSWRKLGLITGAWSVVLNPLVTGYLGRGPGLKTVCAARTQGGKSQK

On to `COc1ccc(C(=O)N(CC(C)(C)CCCCCCCCCCCCCCCCCCCC(=O)NCC[N+](C)(CC(=O)NCCN)CC(=O)NCCN)c2cccc(C)n2)c(N2CCC(COc3cc([C@@H](CC(=O)O)C4CC4)ccn3)CC2)c1` [Example 4], for which the EC50 on GPR40 is 2.14 nM. In addition, in data set [1], the Cl stood at 0.22 ml/mL/kg, the AUC was determined as 54.1 µM·h, the half-life is 8.2 h and the Vd was found to be 0.14 L/kg. In data set [1], the concentration peaked (Cmax) at 0.0661 µM, the time of peak concentration (Tmax) was found to be 5.3 h and the bioavailability is 0.16%.

Take `COc1ccc(C(=O)N(CC(C)(C)CCCCCCCCCCCCCCCCCC(=O)NCCC[N+](C)(CC(=O)NCCN)CC(=O)NCCN)c2cccc(C)n2)c(N2CCC(COc3cc([C@@H](CC(=O)O)C4CC4)ccn3)CC2)c1` [Example 12]: the concentration for a half-maximal effect (EC50) at GPR40 was 0.17 nM. For the same molecule, in data set [1], the Cl is 0.15 ml/mL/kg, the AUC was found to be 33.9 µM·h, the half-life was 8.9 h and the Vd worked out at 0.1 L/kg. Also, in data set [1], the Cmax worked out at 0.0807 µM, the Tmax is 5.3 h and the bioavailability stood at 0.17%.

As for `COc1ccc(C(=O)N(CC(C)(C)CCCCCCCCCCCCCCCCCC(=O)NCC[N+](C)(CCCC(=O)NCCN)CCCC(=O)NCCN)c2cccc(C)n2)c(N2CCC(COc3cc([C@@H](CC(=O)O)C4CC4)ccn3)CC2)c1` [Example 17], in data set [1], the Cl amounted to 0.10 ml/mL/kg and the Vd was found to be 0.08 L/kg. Further, the “% change in AUC over vehicle” value in the data set on C57BL/6 mice is reported as −26.9%. Also, the concentration at 6 h in data set [2] is 0.237 ± 0.002 µg/mL.

`COc1ccc(C(=O)N(CC(C)(C)CCCCCCCCCCCCCCCCCC(=O)NCCC[N+]23CC[N+](C)(CC2)CC3)c2cccc(C)n2)c(N2CCC(COc3cc([C@@H](CC(=O)O)C4CC4)ccn3)CC2)c1` [Example 19] returned an EC50 at GPR40 of 0.07 nM. Besides, in data set [1], the Cl came to 0.43 ml/mL/kg, the area under the curve (AUC) is 28.5 µM·h, the half-life is 4.7 h and the Vd stood at 0.11 L/kg. For the same molecule, in data set [1], the Cmax was determined as 0.077 µM, the Tmax worked out at 4 h and the bioavailability turned out to be 0.31%. In addition, the “% change in AUC over vehicle” value in the data set with C57BL/6 mice was −29.7%. In addition, in data set [2], the concentration at 6 h stood at 0.347 ± 0.125 µg/mL.

Take `COc1ccc(C(=O)N(CC(C)(C)CCCCCCCCCCCCCCCCCC(=O)NCCC[N+]23CCN(CC2)CC3)c2cccc(C)n2)c(N2CCC(COc3cc([C@@H](CC(=O)O)C4CC4)ccn3)CC2)c1` [Example 18, (S)-1-(3-(20-(2-(4-(((4-(2-carboxy-1-cyclopropylethyl)pyridin-2-yl)oxy)methyl)piperidin-1-yl)-4-methoxy-N-(6-methylpyridin-2-yl)benzamido)-19,19-dimethylicosanamido)propyl)-1,4-diazabicyclo[2.2.2]octan-1-ium TFA salt]: the midpoint of the response on GPR40, the EC50, lay at 0.24 nM. In data set [1], the Cl is on record as 0.32 ml/mL/kg, the AUC came to 33.7 µM·h, the half-life was 5.1 h and the Vd came to 0.11 L/kg. Moreover, in data set [1], the Cmax worked out at 0.042 µM, the Tmax came to 4 h and the bioavailability came to 0.15%. In addition, the “% change in AUC over vehicle” value with C57BL/6 mice is reported as −26.4%. In addition, the concentration at 6 h in data set [2] was determined as 0.274 ± 0.099 µg/mL.

Take `COc1ccc(C(=O)N(CC(C)(C)CCCCCCCCCCCCCCCCCCCC(=O)NCCC[N+](C)(CC(=O)[O-])CC(=O)O)c2cccc(C)n2)c(N2CCC(COc3cc([C@@H](CC(=O)O)C4CC4)ccn3)CC2)c1` (stereo partly shown) [Example 14]: the EC50 on GPR40 turned out to be 0.63 nM. In addition, in data set [1], the Cl was determined as 0.20 ml/mL/kg, the AUC worked out at 68 µM·h, the half-life was 6.7 h and the Vd worked out at 0.09 L/kg. Besides, in data set [1], the peak level (Cmax) was 0.164 µM, the time of peak concentration (Tmax) turned out to be 8 h and the bioavailability came to 0.37%.

On GPR40, `COc1ccc(C(=O)N(CC(C)(C)CCCCCCCCCCCCCCCCCCCC(=O)NCCCN(CC(=O)O)CC(=O)O)c2cccc(C)n2)c(N2CCC(COc3cc([C@@H](CC(=O)O)C4CC4)ccn3)CC2)c1` [Example 13] showed an EC50 of 0.76 nM. In addition, in data set [1], the Cl came to 0.14 ml/mL/kg, the AUC worked out at 88.9 µM·h, the half-life was 6.5 h and the Vd came out at 0.07 L/kg. For the same molecule, in data set [1], the highest concentration (Cmax) stood at 0.268 µM, the time to peak (Tmax) amounted to 8 h and the bioavailability is 0.52%.

`COc1ccc(C(=O)N(CC(C)(C)CCCCCCCCCCCCCCCCCCCCCC[N+]23CCN(CC2)CC3)c2cccc(C)n2)c(N2CCC(COc3cc([C@@H](CC(=O)O)C4CC4)ccn3)CC2)c1` [Example 21, (S)-1-(24-(2-(4-(((4-(2-carboxy-1-cyclopropylethyl)pyridin-2-yl)oxy)methyl)piperidin-1-yl)-4-methoxy-N-(6-methylpyridin-2-yl)benzamido)-23,23-dimethyltetracosyl)-1,4-diazabicyclo[2.2.2]octan-1-ium] yielded a half-maximal effective concentration (EC50) at GPR40 of 2.04 nM. In data set [1], the Cl is 0.67 ml/mL/kg, the AUC was 18.5 µM·h, the half-life was 7.2 h and the Vd came to 0.36 L/kg. Further, in data set [1], the peak concentration (Cmax) stood at 0.037 µM, the Tmax was determined as 6.7 h and the bioavailability was 0.34%.
